Experiment: molar heat capacity at constant pressure
Settings: 101.33 kPa, Vacuum adiabatic calorimetry

CCCCn1cc[n+](C)c1.[I-] [1-butyl-3-methylimidazolium iodide]
molar heat capacity at constant pressure [J/K/mol]
Settings	Crystal	Glass
4.858 K	0.768	–
5 K	0.845	1.57
5.042 K	–	1.601
5.112 K	0.909	–
5.32 K	–	1.862
5.371 K	1.07	–
5.604 K	–	2.149
5.638 K	1.249	–
5.895 K	–	2.463
5.91 K	1.452	–
6.217 K	1.701	–
6.222 K	–	2.842
6.56 K	2.006	–
6.586 K	–	3.292
6.91 K	2.343	–
6.955 K	–	3.776
7.265 K	2.714	–
7.328 K	–	4.295
7.496 K	–	4.532
7.625 K	3.114	–
7.705 K	–	4.838
7.884 K	–	5.11
7.99 K	3.553	–
8.267 K	–	5.703
8.357 K	4.021	–
8.654 K	–	6.323
8.728 K	4.513	–
9.042 K	–	6.967
9.104 K	5.04	–
9.433 K	–	7.63
9.483 K	5.597	–
9.825 K	–	8.316
9.868 K	6.177	–
10 K	6.39	8.62
10.33 K	–	9.205
10.36 K	6.957	–
10.94 K	–	10.33
10.95 K	7.92	–
11.56 K	8.937	11.49
12.16 K	9.99	–
12.18 K	–	12.66
12.77 K	11.08	–
12.8 K	–	13.88
13.38 K	12.19	–
13.42 K	–	15.11
14 K	13.34	–
14.05 K	–	16.37
14.63 K	14.54	–
14.69 K	–	17.68
15 K	15.25	18.31
15.25 K	15.73	–
15.47 K	–	19.26
15.99 K	17.18	–
16.42 K	–	21.23
16.84 K	18.83	–
17.37 K	–	23.19
17.7 K	20.48	–
18.32 K	–	25.15
18.56 K	22.1	–
19.27 K	–	27.09
19.42 K	23.73	–
20 K	24.83	28.59
20.22 K	–	29.03
20.29 K	25.36	–
21.48 K	–	31.59
21.5 K	27.65	–
23.05 K	–	34.73
23.06 K	30.6	–
24.62 K	33.53	–
24.63 K	–	37.87
25 K	34.2	38.6
26.19 K	36.35	–
26.21 K	–	40.93
27.59 K	38.83	–
27.79 K	–	43.88
29.09 K	41.41	–
29.96 K	–	47.88
30 K	42.93	47.93
30.68 K	44.04	–
32.35 K	–	52.05
32.43 K	46.84	–
34.29 K	–	55.25
34.33 K	49.79	–
35 K	50.8	56.37
36.21 K	–	58.25
36.25 K	52.67	–
38.13 K	–	61.21
38.16 K	55.41	–
40 K	58.01	64
40.04 K	–	64.03
40.07 K	58.07	–
42.06 K	–	66.96
42.08 K	60.84	–
44.18 K	–	69.94
44.19 K	63.71	–
45 K	64.77	71.05
46.3 K	66.48	72.87
48.41 K	69.11	–
48.42 K	–	75.66
50 K	71.06	77.66
50.52 K	71.72	–
50.54 K	–	78.37
52.64 K	74.22	–
52.66 K	–	80.96
54.76 K	76.59	–
54.78 K	–	83.48
56.88 K	78.93	–
56.91 K	–	85.88
59.01 K	81.2	–
59.04 K	–	88.27
60 K	82.26	89.36
61.14 K	83.4	–
61.17 K	–	90.59
63.27 K	85.56	–
63.31 K	–	92.93
65.4 K	87.69	–
65.45 K	–	95.14
67.54 K	89.76	–
67.59 K	–	97.4
69.67 K	91.79	–
69.73 K	–	99.56
70 K	92.11	99.8
71.91 K	93.89	–
71.97 K	–	101.8
74.26 K	96.02	–
74.32 K	–	104.1
76.61 K	98.12	–
76.67 K	–	106.3
78.96 K	100.2	–
79.03 K	–	108.5
80 K	101	109.4
80.72 K	–	110.2
80.99 K	102	–
81.32 K	102.2	–
81.39 K	–	110.6
82.53 K	–	111.7
82.87 K	103.5	–
83.68 K	104.1	–
83.75 K	–	112.7
84.35 K	–	113.3
84.75 K	105	–
86.18 K	–	114.8
86.65 K	106.5	–
88.03 K	–	116.3
88.56 K	108	–
89.88 K	–	117.8
90 K	109.2	117.9
90.48 K	109.5	–
91.74 K	–	119.3
92.41 K	110.9	–
93.62 K	–	120.8
94.34 K	112.5	–
95.5 K	–	122.3
96.29 K	113.9	–
97.39 K	–	123.7
98.25 K	115.3	–
99.29 K	–	125.2
100 K	116.6	125.7
100.21 K	116.7	–
101.2 K	–	126.6
102.18 K	118.2	–
103.12 K	–	128
104.16 K	119.5	–
105.04 K	–	129.4
106.14 K	120.9	–
106.97 K	–	130.8
107.31 K	121.7	–
108.13 K	122.3	–
108.91 K	–	132.2
109.45 K	123.1	–
110 K	123.5	132.9
110.13 K	123.6	–
110.85 K	–	133.5
111.45 K	124.4	–
112.13 K	124.9	–
112.8 K	–	134.9
113.46 K	125.7	–
114.14 K	126.3	–
114.75 K	–	136.2
115.47 K	127.1	–
116.16 K	127.5	–
116.71 K	–	137.6
117.49 K	128.4	–
118.17 K	128.8	–
118.68 K	–	138.9
119.51 K	129.7	–
120 K	130	139.8
120.2 K	130.1	–
120.64 K	–	140.2
121.54 K	130.9	–
122.22 K	131.4	–
122.62 K	–	141.5
123.57 K	132.2	–
124.25 K	132.7	–
124.59 K	–	142.8
125.6 K	133.5	–
126.29 K	133.9	–
126.57 K	–	144.1
127.64 K	134.7	–
128.33 K	135.1	–
128.55 K	–	145.4
129.68 K	135.9	–
130 K	136.1	146.4
130.37 K	136.4	–
130.54 K	–	146.7
131.72 K	137.2	–
132.41 K	137.6	–
132.53 K	–	148
133.76 K	138.4	–
134.46 K	138.8	–
134.52 K	–	149.3
135.81 K	139.6	–
136.51 K	140.1	150.6
137.87 K	140.8	–
138.51 K	–	151.8
138.56 K	141.3	–
139.92 K	142.1	–
140 K	142.1	152.8
140.51 K	–	153.1
140.62 K	142.5	–
141.98 K	143.3	–
142.51 K	–	154.4
142.68 K	143.7	–
144.04 K	144.5	–
144.51 K	–	155.7
144.74 K	144.9	–
146.1 K	145.7	–
146.51 K	–	157
146.8 K	146.1	–
148.16 K	146.9	–
148.52 K	–	158.3
148.86 K	147.3	–
150 K	147.9	159.3
150.22 K	148.1	–
150.52 K	–	159.6
150.92 K	148.5	–
152.28 K	149.3	–
152.53 K	–	160.9
152.98 K	149.7	–
154.35 K	150.5	–
154.54 K	–	162.2
155.05 K	150.8	–
156.41 K	151.6	–
156.54 K	–	163.5
157.11 K	152.1	–
158.48 K	152.8	–
158.55 K	–	164.8
159.18 K	153.2	–
160 K	153.7	165.7
160.54 K	154	–
160.56 K	–	166.1
161.24 K	154.4	–
162.57 K	–	167.4
162.61 K	155.2	–
163.31 K	155.6	–
164.58 K	–	168.7
164.68 K	156.4	–
165.38 K	156.8	–
166.59 K	–	170
166.74 K	157.5	–
167.44 K	158	–
168.59 K	–	171.4

Reference: the NIST ThermoML archive (doi:10.1016/j.jct.2014.07.018)
